Measurements: patent publication US8815872B2, “Macrocyclics pyrimidines as aurora kinase inhibitors” (Merck Patent GmbH, priority 2008, dated 2014)
Values joined by “and” are separate entries in the source; they are usually repeats but may differ in a detail not shown here. Equal values may be shown once. Read-outs that look alike come from different tables or passages of the source.

Tests used:
[1] = target: T1, Aurora A (Homo sapiens, UniProt O14965); experiment: Aurora A enzyme assay (Caliper LC3000 mobility shift); assay type: biochemical
T1 construct: N-terminal GST fusion with full length Aurora A (1-403 amino acids); purchased Carna Biosciences 05-101
T1 sequence (O14965 1-403): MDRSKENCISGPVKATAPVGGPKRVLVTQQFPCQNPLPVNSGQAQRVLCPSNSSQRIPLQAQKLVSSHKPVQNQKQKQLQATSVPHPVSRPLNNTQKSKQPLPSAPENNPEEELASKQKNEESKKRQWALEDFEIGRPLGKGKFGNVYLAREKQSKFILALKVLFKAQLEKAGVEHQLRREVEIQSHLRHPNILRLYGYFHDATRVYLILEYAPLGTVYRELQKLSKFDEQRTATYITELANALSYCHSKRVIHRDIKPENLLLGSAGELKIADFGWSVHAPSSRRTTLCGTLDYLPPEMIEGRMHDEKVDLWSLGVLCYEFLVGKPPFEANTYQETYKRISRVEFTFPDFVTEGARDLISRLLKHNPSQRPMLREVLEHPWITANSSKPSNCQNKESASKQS
Experimental: (§1) The Aurora and other kinase assays described here were performed on two Caliper Life Sciences systems, the LC3000 and the Desktop Profiler. These provide data on enzyme activity via measurement of the relative amounts of phosphorylated or unphosphorylated fluorescently labelled substrate peptide at the end of an enzymatic reaction. These different states of peptide are resolved by applying a potential difference across the sample. The presence of a charged phosphate group on the product (as opposed to the substrate) causes a different peptide mobility between the two peptides. This is visualized by excitation of a fluorescent label on the substrate and product peptides and represented as peaks within the analysis software.
For example, in order to measure inhibitor activity of Aurora A inhibitors in the Caliper Life Sciences LC3000, a TTP Mosquito liquid handling instrument was used to place […] of an appropriate concentration of inhibitor in 100% DMSO (for a dose response curve calculation) into each well of a 384-well plate. To this reaction components were added to a final volume of 25 μl: • 0.067 ng/μl GST-Aurora A (Carna Biosciences 05-101. N-terminal GST fusion with full length Aurora A (1-403 amino acids), accession number NP_940835.1). • 15 μM ATP (Fluka, 02055) • 1 mM DTT (Sigma, D0632) • 1 mM MgC12 (Sigma, M1028) • 1 μM substrate peptide (sequence FITC-LRRASLG-(CONH2), synthesized by Tufts Peptide Synthesis service. • 100 mM HEPES pH 7.5 (Calbiochem, 391338) • 0.015% Brij-35 (Sigma, B4184)
The reaction was incubated for 90 min at 25° C., and then stopped by the addition of 70 μl of Stop buffer (100 mM HEPES pH 7.5, 0.015% Brij-35, 10 mM EDTA (Sigma, E7889)).
The plate was read on a Caliper LC 3000 in an Off-Chip mobility shift assay format, using the following parameters for a 12-sipper chip: screening pressure −1.8 psi, upstream voltage −2700, downstream voltage −1000. These conditions cause unphosphorylated substrate and phosphorylated product peptide to resolve as separate peaks allowing direct measurement of percentage of conversion of substrate to product. The percent conversion was plotted against concentration of inhibitor to produce a sigmoidal dose response curve, from which an IC50 was calculated using XLFit for Microsoft Excel.

[2] = target: Aurora B (Homo sapiens, UniProt Q96GD4); experiment: Aurora B enzyme assay (Caliper); assay type: biochemical
Experimental: as §1

[3] = test system: MiaPaca2; experiment: Cellular activity MiaPaca2; assay type: cell-based; conditions: Homo sapiens, MIA PaCa-2
Experimental: (§2) The susceptibility of a particular cell to treatment with the compounds according to the invention was determined by in vitro tests. Typically, a culture of the cell was combined with a compound according to the invention at various concentrations for a period of time that was sufficient to allow the active agents to induce cell death or to inhibit migration, usually between about one hour and one week. In vitro testing was carried out using cultivated cells from a biopsy sample. The viable cells remaining after the treatment then were counted.

[4] = test system: A549; experiment: Cellular activity A549; assay type: cell-based; conditions: Homo sapiens
Experimental: as §2

[5] = target: kinases (not incl. Aurora); experiment: Kinase inhibition profile (not incl. Aurora); assay type: biochemical; conditions: at 1 μM; hit means >79% inhibition
Experimental: as §1
The Desktop Profiler utilizes the same principal as the LC 3000 for calculating percentage conversion of a substrate to product. Caliper Life Sciences provided proprietary flash frozen pre-made 384 well plates containing selected kinases. Each column in the 384 well plate contained a particular selected kinase. A second plate, the ‘substrate plate’ contained a mix of fluorescently labeled peptide substrate and ATP. These were arranged in columns so that transfer for substrate plate to enzyme plate provided the correct enzyme with the correct substrate/ATP concentration.
Compounds were added to a thawed enzyme plate in the desired format, in single concentrations. Reactions were initiated by transfer of the ubstrate/ATP mix from the substrate plate. The enzyme plate was incubated for 90 mins at 25 °C. The reaction was stopped by addition of […] of Stop Buffer (100 mM HEPES pH 7.5, 0.015% Brij-35, 10 mM EDTA (Sigma, E7889)).
Plates were read in a manner identical to that of the LC3000, and the ratio between substrate and product peaks provided the activity of the enzyme in that well. This was best represented by a plate heat map which colors each well by percent inhibition as compared to positive and negative controls (no inhibitors and no ATP respectively).

Aurora B, sequence (Q96GD4 whole entry): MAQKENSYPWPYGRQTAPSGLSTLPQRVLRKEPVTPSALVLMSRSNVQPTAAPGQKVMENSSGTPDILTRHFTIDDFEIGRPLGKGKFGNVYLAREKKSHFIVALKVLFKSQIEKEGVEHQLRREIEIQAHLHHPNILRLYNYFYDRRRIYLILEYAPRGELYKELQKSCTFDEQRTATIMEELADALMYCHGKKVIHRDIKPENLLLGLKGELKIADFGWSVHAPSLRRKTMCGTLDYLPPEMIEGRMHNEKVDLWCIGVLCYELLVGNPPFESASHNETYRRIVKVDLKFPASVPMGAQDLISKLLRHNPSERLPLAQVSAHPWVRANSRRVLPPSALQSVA

SMILES	IC50 [1] [µM]	IC50 [2] [µM]	IC50 [3] [µM]	IC50 [4] [µM]	also measured
NC(=O)[C@H]1[C@@H]2C[C@H]3CNC(=O)Cc4cccc(c4)Nc4ncc(F)c(n4)N[C@@H]1[C@@H]3C2	–	–	–	–	ring closure, yield of all isomers (from NC(=O)[C@H]1[C@@H]2C[C@@H](CNC(=O)Cc3cccc(N)c3)[C@@H](C2)[C@H]1Nc1nc(Cl)ncc1F, snar bond, 2 steps): 7%
NC(=O)[C@H]1[C@@H]2C[C@H]3CNS(=O)(=O)Cc4cccc(c4)Nc4ncc(F)c(n4)N[C@@H]1[C@@H]3C2	0.001 to 0.1	0.101 to 1	1 to 6.25	1 to 6.25	ring closure, yield of all isomers (from NC(=O)[C@H]1[C@@H]2C[C@@H](CNS(=O)(=O)Cc3cccc(N)c3)[C@@H](C2)[C@H]1Nc1nc(Cl)ncc1F, snar bond): 6.3%
Fc1cnc2nc1NC1CCC(CC1)OCC=CCOc1cccc(c1)N2	–	–	–	–	ring closure, yield of all isomers (from C=CCOc1cccc(Nc2ncc(F)c(NC3CCC(OCC=C)CC3)n2)c1, rcm bond, Grubbs 2nd generation, then Hoveyda-Grubbs 2nd generation, dichloromethane, 2.0 mM, 40.0 °C, 76.0 h): 2.7% and 5.9%
CC(=O)N1Cc2cccc(c2)Nc2ncc(F)c(n2)N[C@@H]2[C@@H]3C[C@@H](C[C@H]3C1)[C@@H]2C(N)=O	–	–	–	–	ring closure, yield of all isomers (from CC(=O)N(Cc1cccc(N)c1)C[C@@H]1C[C@@H]2C[C@H]1[C@@H](Nc1nc(Cl)ncc1F)[C@H]2C(N)=O, snar bond): 45.4%
Fc1cnc2nc1NC1CCCC(C1)OCC=CCOc1cccc(c1)N2 (centres unmarked)	–	–	–	–	ring closure, yield of all isomers (from C=CCOc1cccc(Nc2ncc(F)c(NC3CCCC(OCC=C)C3)n2)c1, rcm bond, Grubbs 2nd generation, dichloromethane, 2.0 mM, 40.0 °C, 16.0 h): 1.5%
NC(=O)[C@H]1[C@H]2C[C@H]3[C@H]1Nc1nc(ncc1F)Nc1cccc(c1)CNC(=O)N[C@@H]3C2	0.001 to 0.1	0.001 to 0.1	1 to 6.25	1 to 6.25	ring closure, yield of all isomers (from NC(=O)[C@H]1[C@H]2C[C@@H]([C@H]1Nc1nc(Cl)ncc1F)[C@H](NC(=O)NCc1cccc(N)c1)C2, snar bond): 36.7%
NC(=O)[C@H]1[C@@H]2CC3CNC(=O)c4cccc(c4)Nc4ncc(F)c(n4)N[C@@H]1[C@@H]3C2 (some centres unmarked)	–	–	–	–	ring closure, yield of all isomers (from CC(C)(C)OC(=O)Nc1cccc(C(=O)NCC2C[C@@H]3C[C@H]2[C@@H](Nc2nc(Cl)ncc2F)[C@H]3C(N)=O)c1, snar bond, TFA, 2 steps): 1.8%
NC(=O)[C@H]1[C@@H]2CC3CNS(=O)(=O)c4cccc(c4)Nc4ncc(F)c(n4)N[C@@H]1[C@@H]3C2 (some centres unmarked)	–	–	–	–	ring closure, yield of all isomers (from NC(=O)[C@H]1[C@@H]2CC(CNS(=O)(=O)c3cccc(N)c3)[C@@H](C2)[C@H]1Nc1nc(Cl)ncc1F, snar bond): 8.5%

More lines, main results first:

IC50 [1] [µM]	IC50 [2] [µM]	IC50 [3] [µM]	IC50 [4] [µM]	SMILES	also measured
0.001 to 0.1	0.001 to 0.1	0.101 to 1	0.101 to 1	CN1CCN(c2ccc3cc2COC(=O)N[C@@H]2C[C@@H]4C[C@H]2[C@@H](Nc2nc(ncc2F)N3)[C@H]4C(N)=O)CC1	ring closure, yield of all isomers (from CN1CCN(c2ccc(N)cc2COC(=O)N[C@@H]2C[C@@H]3C[C@H]2[C@@H](Nc2nc(Cl)ncc2F)[C@H]3C(N)=O)CC1, snar bond, HCl): 8.7%
0.001 to 0.1	–	–	–	CN1CCN(c2cc3cc(c2)S(=O)(=O)NC[C@@H]2C[C@@H]4C[C@H]2[C@@H](Nc2nc(ncc2F)N3)[C@H]4C(N)=O)CC1	ring closure, yield of all isomers (from CN1CCN(c2cc(N)cc(S(=O)(=O)NC[C@@H]3C[C@@H]4C[C@H]3[C@@H](Nc3nc(Cl)ncc3F)[C@H]4C(N)=O)c2)CC1, snar bond, HCl): 6.8%
0.101 to 1	0.101 to 1	1 to 6.25	> 6.25	NC(=O)[C@H]1[C@@H]2CC3CNC(=O)Nc4cccc(c4)Nc4ncc(F)c(n4)N[C@@H]1[C@@H]3C2 (some centres unmarked)	Kinase Inhibition Profile (not incl. Aurora) # kinases hit/# kinases tested [5]: 1/76 at 1 μM; ring closure, yield of all isomers (from NC(=O)[C@H]1[C@@H]2CC(CNC(=O)Nc3cccc(N)c3)[C@@H](C2)[C@H]1Nc1nc(Cl)ncc1F, snar bond): 15.1%
0.101 to 1	0.101 to 1	–	–	NC(=O)[C@H]1[C@@H]2C[C@H]3CNCC(=O)Nc4cccc(c4)Nc4ncc(F)c(n4)N[C@@H]1[C@@H]3C2	ring closure, yield of all isomers (from NC(=O)[C@H]1[C@@H]2C[C@@H](CNCC(=O)Nc3cccc(N)c3)[C@@H](C2)[C@H]1Nc1nc(Cl)ncc1F, snar bond): 44%
1 to 6.25	1 to 6.25	–	–	NC(=O)[C@H]1[C@@H]2C[C@H]3CNC(=O)Cn4cnc(c4)Nc4ncc(F)c(n4)N[C@@H]1[C@@H]3C2	ring closure, yield of all isomers (from NC(=O)[C@H]1[C@@H]2C[C@@H](CNC(=O)Cn3cnc([N+](=O)[O-])c3)[C@@H](C2)[C@H]1Nc1nc(Cl)ncc1F, snar bond, 2 steps): 46.6%
0.101 to 1	0.001 to 0.1	–	–	CN1CCN(c2ccc3cc2CNC[C@@H]2C[C@@H]4C[C@H]2[C@@H](Nc2nc(ncc2F)N3)[C@H]4C(N)=O)CC1	ring closure, yield of all isomers (from CN1CCN(c2ccc(N)cc2CNC[C@@H]2C[C@@H]3C[C@H]2[C@@H](Nc2nc(Cl)ncc2F)[C@H]3C(N)=O)CC1, snar bond, HCl): 24.9%
0.001 to 0.1	0.001 to 0.1	–	–	NC(=O)[C@H]1[C@H]2C[C@H]3[C@H]1Nc1nc(ncc1F)Nc1cccc(c1)CC(=O)N[C@@H]3C2	ring closure, yield of all isomers (from NC(=O)[C@H]1[C@H]2C[C@@H]([C@H]1Nc1nc(Cl)ncc1F)[C@H](NC(=O)Cc1cccc(N)c1)C2, snar bond): 8.1%
0.001 to 0.1	0.001 to 0.1	–	–	CN1CCN(c2ccc3cc2CC(=O)N[C@@H]2C[C@@H]4C[C@H]2[C@@H](Nc2nc(ncc2F)N3)[C@H]4C(N)=O)CC1	ring closure, yield of all isomers (from CN1CCN(c2ccc(N)cc2CC(=O)N[C@@H]2C[C@@H]3C[C@H]2[C@@H](Nc2nc(Cl)ncc2F)[C@H]3C(N)=O)CC1, snar bond): 5.3%
0.001 to 0.1	0.001 to 0.1	1 to 6.25	1 to 6.25	NC(=O)[C@H]1[C@H]2C[C@H]3[C@H]1Nc1nc(ncc1F)Nc1cccc(c1)COC(=O)N[C@@H]3C2	ring closure, yield of all isomers (from NC(=O)[C@H]1[C@H]2C[C@@H]([C@H]1Nc1nc(Cl)ncc1F)[C@H](NC(=O)OCc1cccc(N)c1)C2, snar bond): 3.3%
0.101 to 1	–	–	–	NC(=O)[C@H]1[C@@H]2C[C@H]3CNCC(O)c4cccc(c4)Nc4ncc(F)c(n4)N[C@@H]1[C@@H]3C2 (some centres unmarked)	ring closure, yield of all isomers (from NC(=O)[C@H]1[C@@H]2C[C@@H](CNCC(O)c3cccc(N)c3)[C@@H](C2)[C@H]1Nc1nc(Cl)ncc1F, snar bond, HCl): 43.9%
1 to 6.25	0.001 to 0.1	–	–	CN1Cc2cccc(c2)Nc2ncc(F)c(n2)N[C@@H]2[C@@H]3C[C@@H](C[C@H]3C1)[C@@H]2C(N)=O	ring closure, yield of all isomers (from CN(Cc1cccc(N)c1)C[C@@H]1C[C@@H]2C[C@H]1[C@@H](Nc1nc(Cl)ncc1F)[C@H]2C(N)=O, snar bond): 5.5%
0.001 to 0.1	0.001 to 0.1	1 to 6.25	> 6.25	NC(=O)[C@H]1[C@@H]2C[C@H]3CNC(=O)Cn4cc(cn4)Nc4ncc(F)c(n4)N[C@@H]1[C@@H]3C2	Kinase Inhibition Profile (not incl. Aurora) # kinases hit/# kinases tested [5]: 2/73 at 1 μM
